For 20 compounds, T/C results are on record in PubChem BioAssay AID328 (DTP/NCI, 2004).

“And” between values parts separate entries of the source, which are not always exact repeats. Identical values can stand only once. Toxic doses and inconclusive results are not listed.

This assay has as its system BDF1 mice, P388 leukemia ip, median survival T/C. The assay can be described thus: NCI In Vivo Anticancer Drug Screen. Data for tumor model P388 Leukemia (intraperitoneal) in B6D2F1 (BDF1) mice. As to conditions: endpoint: median survival time, higher = longer survival. Summed up: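 Reported as T/C, where T is the survival measurement in dosed animals and C the same measurement in vehicle controls.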

Setting [1] is: dose: 50.0 mg/kg/injection, schedule: Q04DX003 (ip), vehicle: saline.
Where [2] appears, read: dose: 50.0 mg/kg/injection, schedule: Q01DX009 (ip), vehicle: saline with Tween-80.
Setting [3] is: dose: 100.0 mg/kg/injection, schedule: Q01DX009 (ip), vehicle: saline with Tween-80.
The mark [4] stands for this setting: dose: 200.0 mg/kg/injection, schedule: Q01DX009 (ip), vehicle: saline with Tween-80.
[5] abbreviates: dose: 100.0 mg/kg/injection, schedule: Q04DX003 (ip), vehicle: saline with Tween-80.
Setting [6] is: dose: 200.0 mg/kg/injection, schedule: Q04DX003 (ip), vehicle: saline with Tween-80.
[7] abbreviates: dose: 400.0 mg/kg/injection, schedule: Q04DX003 (ip), vehicle: saline with Tween-80.
[8] abbreviates: dose: 50.0 mg/kg/injection, schedule: Q01DX009 (ip), vehicle: saline.
Where [9] appears, read: dose: 100.0 mg/kg/injection, schedule: Q01DX005 (ip), vehicle: saline with Tween-80.
Where [10] appears, read: dose: 200.0 mg/kg/injection, schedule: Q01DX005 (ip), vehicle: saline with Tween-80.
Where [11] appears, read: dose: 30.0 mg/kg/injection, schedule: Q01DX009 (ip), vehicle: saline with Tween-80.
The mark [12] stands for this setting: dose: 12.5 mg/kg/injection, schedule: Q01DX009 (ip), vehicle: Klucel (hydroxypropylcellulose) (HPC).
The mark [13] stands for this setting: dose: 25.0 mg/kg/injection, schedule: Q01DX009 (ip), vehicle: Klucel (hydroxypropylcellulose) (HPC).

Turning to `OCCNCCN1CCN(CCCN2c3ccccc3Sc3ccc(C(F)(F)F)cc32)CC1`, the T/C by setting is: (dose: 6.25 mg/kg/injection, schedule: Q04DX003 (ip), vehicle: saline) 104 % of control; (dose: 12.5 mg/kg/injection, schedule: Q04DX003 (ip), vehicle: saline) 110 % of control; (dose: 25.0 mg/kg/injection, schedule: Q04DX003 (ip), vehicle: saline) 91 % of control and 110 % of control; under setting [1], 91 % of control.

As for `CC[n+]1ccc(Nc2ccc(NC(=O)c3ccc(Nc4cc[n+](CC)c5ccc([N+](=O)[O-])cc45)cc3)cc2)cc1`, the T/C was 111 % of control (dose: 0.44 mg/kg/injection, schedule: Q04DX003 (ip), vehicle: saline); 116 % of control (dose: 0.66 mg/kg/injection, schedule: Q04DX003 (ip), vehicle: saline); 100 % of control (dose: 1.0 mg/kg/injection, schedule: Q04DX003 (ip), vehicle: saline); 110 % of control (dose: 1.5 mg/kg/injection, schedule: Q04DX003 (ip), vehicle: saline); 150 % of control (dose: 4.0 mg/kg/injection, schedule: Q04DX003 (ip), vehicle: saline); 150 % of control (dose: 6.0 mg/kg/injection, schedule: Q04DX003 (ip), vehicle: saline). In addition, the T/C (dose: 22.0 mg/kg/injection, schedule: Q04DX003 (ip), vehicle: saline) was 152 % of control; the T/C (dose: 33.0 mg/kg/injection, schedule: Q04DX003 (ip), vehicle: saline) was 180 % of control; the T/C under setting [1] was 186 % of control.

Turning to `COC1=C(C)C(=O)c2c(c(COC(N)=O)c3n2CC2C3N2C)C1=O` (centres undefined), the T/C (dose: 2.0 mg/kg/injection, schedule: Q01DX009 (ip), vehicle: saline sonified) is 120 % of control.

As for `CCN(CC)CCCNC(C)CCCN(CC)CC` (centres undefined), the T/C was 103 % of control (dose: 50.0 mg/kg/injection, schedule: Q01DX009 (ip), vehicle: water); 98 % of control (dose: 100.0 mg/kg/injection, schedule: Q01DX009 (ip), vehicle: water); 102 % of control (dose: 100.0 mg/kg/injection, schedule: Q04DX003 (ip), vehicle: water); 100 % of control (dose: 200.0 mg/kg/injection, schedule: Q04DX003 (ip), vehicle: water).

Take `CCCCCCCCCCCCCCCCCSCCCCCSCCCCCCCCCCCCCCCCC`: the T/C by setting is: (dose: 100.0 mg/kg/injection, schedule: Q01DX001 (ip), vehicle: saline with Tween-80) 90 % of control; (dose: 400.0 mg/kg/injection, schedule: Q01DX001 (ip), vehicle: saline with Tween-80) 86 % of control.

As for `O=C(CNC(=O)Nc1n[nH]c(=S)s1)N/N=C/c1ccc2c(c1)OCO2`, the T/C was 116 % of control under setting [2], 100 % of control under setting [3] and 98 % of control under setting [4].

`COC(=O)c1cc(C)n(C)c(=O)c1CNS(=O)(=O)c1ccccc1`: the T/C reads like this: under setting [5], 98 % of control; under setting [6], 100 % of control; under setting [7], 98 % of control.

Regarding `ClC12CC3CC(CC(C3)C1)C2`, the T/C is 104 % of control (dose: 50.0 mg/kg/injection, schedule: Q04DX003 (ip), vehicle: acetone); 113 % of control (dose: 100.0 mg/kg/injection, schedule: Q04DX003 (ip), vehicle: acetone); 109 % of control (dose: 200.0 mg/kg/injection, schedule: Q04DX003 (ip), vehicle: acetone).

Turning to `CS(=O)(=O)c1ncc(Br)cn1`, the T/C was 103 % of control (dose: 50.0 mg/kg/injection, schedule: Q01DX005 (ip), vehicle: saline with Tween-80); 111 % of control under setting [8]; 109 % of control under setting [9]; 124 % of control (dose: 100.0 mg/kg/injection, schedule: Q01DX009 (ip), vehicle: saline); 117 % of control under setting [10]; 120 % of control (dose: 200.0 mg/kg/injection, schedule: Q01DX009 (ip), vehicle: saline). Further, for the setting “dose: 400.0 mg/kg/injection, schedule: Q01DX005 (ip), vehicle: saline with Tween-80”, the T/C is 120 % of control.

As to `Cc1cccc(NC(=O)NCCOC(=O)OCCNC(=O)Nc2cccc(C)c2C)c1C`, the T/C is, setting by setting: under setting [3], 90 % of control; under setting [4], 90 % of control; (dose: 400.0 mg/kg/injection, schedule: Q01DX009 (ip), vehicle: saline with Tween-80) 113 % of control.

As for `CCOC(=O)c1sc2nc(C)cc(C)c2c1N`, the T/C runs as follows: under setting [9], 100 % of control; under setting [10], 110 % of control.

For the compound `O=[N+]([O-])c1cc2no[n+]([O-])c2cc1N1CCOCC1`, the T/C under setting [11] was 108 % of control.

As to `CC(Cc1ccccc1)NC1CC2CCC1C2` (centres undefined), the T/C is, setting by setting: (dose: 6.25 mg/kg/injection, schedule: Q01DX009 (ip), vehicle: Klucel (hydroxypropylcellulose) (HPC)) 104 % of control; under setting [12], 104 % of control; under setting [13], 113 % of control.

As for `Cc1noc(C)c1CON`, the T/C was 91 % of control (dose: 12.5 mg/kg/injection, schedule: Q01DX009 (ip), vehicle: saline); 91 % of control (dose: 25.0 mg/kg/injection, schedule: Q01DX009 (ip), vehicle: saline); 95 % of control under setting [8].

With `CC1=NN(c2ccccc2)C(=O)C1=Nc1c(C)[nH]n(-c2ccccc2)c1=O`, the T/C was 96 % of control under setting [11] and 91 % of control (dose: 60.0 mg/kg/injection, schedule: Q01DX009 (ip), vehicle: saline with Tween-80).

As to `CN(C)c1ccc(/C=C/c2ccnc3ccccc23)c(Cl)c1`, the T/C reads like this: under setting [2], 102 % of control; under setting [3], 96 % of control; under setting [4], 88 % of control.

Regarding `CCCCOB(/C=C/Sc1ccccc1)OCCCC`, the T/C runs as follows: under setting [3], 120 % of control; under setting [5], 115 % of control; (dose: 132.0 mg/kg/injection, schedule: Q01DX009 (ip), vehicle: saline with Tween-80) 118 % of control; under setting [6], 120 % of control; (dose: 300.0 mg/kg/injection, schedule: Q01DX009 (ip), vehicle: saline with Tween-80) 122 % of control; under setting [7], 110 % of control.

In the case of `O=C1c2ccccc2S(=O)(=O)N1CCCBr`, the T/C is 95 % of control under setting [12]; 110 % of control under setting [13]; 105 % of control (dose: 50.0 mg/kg/injection, schedule: Q01DX009 (ip), vehicle: Klucel (hydroxypropylcellulose) (HPC)); 95 % of control (dose: 100.0 mg/kg/injection, schedule: Q04DX003 (ip), vehicle: Klucel (hydroxypropylcellulose) (HPC)); 95 % of control (dose: 200.0 mg/kg/injection, schedule: Q04DX003 (ip), vehicle: Klucel (hydroxypropylcellulose) (HPC)); 95 % of control (dose: 400.0 mg/kg/injection, schedule: Q04DX003 (ip), vehicle: Klucel (hydroxypropylcellulose) (HPC)).

Turning to `CCN(CC)CCOCCO`, the T/C is 110 % of control (dose: 100.0 mg/kg/injection, schedule: Q04DX003 (ip), vehicle: saline) and 100 % of control (dose: 400.0 mg/kg/injection, schedule: Q04DX003 (ip), vehicle: saline).

Consider `CCCCNCCC(SS)c1ccc(Cl)cc1` (centres undefined), for which the T/C by setting is: (dose: 50.0 mg/kg/injection, schedule: Q04DX003 (ip), vehicle: saline with Tween-80) 104 % of control; under setting [5], 100 % of control.
